Structures can show the parent of a compound that is named as a salt.
Tested on: ALPK1-dependent NFκB reporter gene activation in HEK293 cells stably expressing an NF-kB reporter (G9 cells)
Experiment: NFκB gene reporter alkaline phosphatase assay
Format: cell-based
Conditions: Homo sapiens, HEK293; read-out: NFkB assay IC50
Source text: In embodiments, a compound of Formula I, or a subembodiment described herein, is an inhibitor of ALPK1 as measured, for example, in an in vitro kinase assay, or an assay designed to measure the activation of downstream targets of ALPK1 pathway activation, for example NFkB transcriptional activation and the secretion of proinflammatory cytokines and chemokines, such as IL-8, which is also referred to as CXCL-8. In general, the computer program XL fit was used for data analysis, including non-linear regression analysis. The half maximal inhibitory concentration (IC50) was used as the measure of a compound's effectiveness in the assays. IC50 values were determined using the following logistic equation Y=min+(max−min)/(1+(X/IC50^−hillslpoe), where Y is the value at the compound concentration, X. The concentration response curve fitting was conducted using GraphPad Prism version 6.00 software.
An alkaline phosphatase reporter assay system was used to measure inhibition of ALPK1-dependent NFκB reporter gene activation. Briefly, HEK293 cells stably expressing an NF-kB reporter (referred to herein as “G9 cells”) were maintained in DMEM as described above. For the assay, cells were seeded into 96-well plates at a density of 10,000 cells/well in Freestyle™ 293 Expression Medium (ThermoFisher), and allowed to attach overnight. Cells were pretreated with serially diluted compounds for 30 min and then stimulated with D-glycero-D-manno-6-fluoro-heptose-1β-S-ADP. […] NFkB gene activation was detected using the chromogenic substrate, para-nitrophenyl phosphate (pNPP) according to the manufacturer's protocols (pNPP Phosphatase Assay, Beyotime Biotechnology).

| Structure (SMILES) | IC50 [nM] |
| --- | --- |
| C#CC(C)(c1ccc(Br)cc1)c1csc(NC(N)=O)n1 (stereo in doubt) [Example A163, (S)-1-(4-(2-(4-bromophenyl)but-3-yn-2-yl)thiazol-2-yl)urea] | 350 |
| C#CC(C)(c1ccc(Br)cc1)c1csc(NC(N)=O)n1 (stereo in doubt) [Example A164, (R)-1-(4-(2-(4-bromophenyl)but-3-yn-2-yl)thiazol-2-yl)urea] | 590 |
| C#C[C@](C)(c1ccc(Cl)cc1)c1csc(NC(=O)N2CCc3cc(N4CCNCC4)ccc3C2)n1 (stereo in doubt) [Example A280, N-(4-(2-(4-chlorophenyl)but-3-yn-2-yl)thiazol-2-yl)-6-(piperazin-1-yl)-3,4-dihydroisoquinoline-2(1H)-carboxamide] | 2180 |
| CC(C)(c1ccc(Br)cc1)c1csc(NC(=O)NCc2cccc(N3CCNCC3)c2)n1 [Example A005, 1-(4-(2-(4-bromophenyl)propan-2-yl)thiazol-2-yl)-3-(3-(piperazin-1-yl)benzyl)urea] | 1150 |
| CC(C)(c1ccc(Br)cc1)c1csc(NC(=O)NCc2ccc(N3CCNCC3)c(Br)c2)n1 [Example A097, 1-(3-bromo-4-(piperazin-1-yl)benzyl)-3-(4-(2-(4-bromophenyl)propan-2-yl)thiazol-2-yl)urea] | 1420 |
| COc1ccc(C(C)(C)c2csc(NC(=O)NCCCCNc3ccccc3)n2)cc1 [Example A147, 1-(4-(2-(4-methoxyphenyl)propan-2-yl)thiazol-2-yl)-3-(4-(phenylamino)butyl)urea] | 1910 |
| COc1ccc(C(C)(C)c2csc(NC(=O)NCc3cc(F)c(C4CCNCC4)c(F)c3)n2)cc1 [Example A151, 1-(3,5-difluoro-4-(piperidin-4-yl)benzyl)-3-(4-(2-(4-methoxyphenyl)propan-2-yl)thiazol-2-yl)urea hydrochloride] | 950 |
| CC(C)(c1ccc(I)cc1)c1csc(NC(=O)NCc2cnc(N3CCNCC3)nc2)n1 [Example A178, 1-(4-(2-(4-iodophenyl)propan-2-yl)thiazol-2-yl)-3-((2-(piperazin-1-yl)pyrimidin-5-yl)methyl)urea] | 920 |
| CC(C)(c1ccc(Br)cc1)c1csc(NC(=O)NCc2ccc(C3CCNCC3)c(F)c2)n1 [Example A222, 1-(4-(2-(4-bromophenyl)propan-2-yl)thiazol-2-yl)-3-(3-fluoro-4-(piperidin-4-yl)benzyl)urea] | 930 |
| C#CC(C)(c1ccc(OC)cc1)c1csc(NC(=O)NC(C)c2ccc(N3CCNCC3)cc2)n1 (centres unmarked) [Example A234, 1-(4-(2-(4-methoxyphenyl)but-3-yn-2-yl)thiazol-2-yl)-3-(1-(4-(piperazin-1-yl)phenyl)ethyl)urea] | 2670 |
| COc1ccc(C(C)(CO)c2csc(NC(=O)NC(C)c3ccc(N4CCNCC4)cc3)n2)cc1 (centres unmarked) [Example A235, 1-(4-(1-hydroxy-2-(4-methoxyphenyl)propan-2-yl)thiazol-2-yl)-3-(1-(4-(piperazin-1-yl)phenyl)ethyl)urea] | 27000 |
| C#CC(C)(c1ccc(Br)cc1)c1csc(NC(=O)NCCN2CCNCC2)n1 (centres unmarked) [Example A239, 1-(4-(2-(4-bromophenyl)but-3-yn-2-yl)thiazol-2-yl)-3-(2-(piperazin-1-yl)ethyl)urea] | 850 |
| C#C[C@@](C)(c1ccc(Cl)cc1)c1nc(NC(=O)NCCO)sc1Cl [Example A247, (S)-1-(5-chloro-4-(2-(4-chlorophenyl)but-3-yn-2-yl)thiazol-2-yl)-3-(2-hydroxyethyl)urea] | 1850 |
| C#C[C@](C)(c1ccc(Cl)cc1)c1nc(NC(=O)NCCO)sc1Cl [Example A248, (R)-1-(5-chloro-4-(2-(4-chlorophenyl)but-3-yn-2-yl)thiazol-2-yl)-3-(2-hydroxyethyl)urea] | 2730 |
| C#C[C@@](C)(c1ccc(Cl)cc1)c1csc(NC(=O)N2CCc3cc(N4CCNCC4)ccc3C2)n1 [Example A260, (S)-N-(4-(2-(4-chlorophenyl)but-3-yn-2-yl)thiazol-2-yl)-6-(piperazin-1-yl)-3,4-dihydroisoquinoline-2(1H)-carboxamide] | 1080 |

Same assay, conditions: read-out: NFkB assay IC50

| Structure (SMILES) | IC50 [nM] |
| --- | --- |
| C#C[C@](C)(c1ccc(Cl)cc1)c1csc(NC(=O)NCC(C)O)n1 (stereo in doubt) [Example A318, 1-(4-(2-(4-chlorophenyl)but-3-yn-2-yl)thiazol-2-yl)-3-(2-hydroxypropyl)urea] | 2240 |
| C#C[C@@](C)(c1ccc(Cl)cc1)c1csc(NC(=O)N2CCc3cc(N4CCNCC4)ccc3C2)n1 [Example A281, N-(4-(2-(4-chlorophenyl)but-3-yn-2-yl)thiazol-2-yl)-6-(piperazin-1-l)-3,4-dihydroisoquinoline-2(1H)-carboxamide] | 860 |

Molecular target: ALPK1 (Homo sapiens (Human), UniProt Q96QP1)
Experiment: ALPK1 in vitro kinase assay (HTRF of TIFA phosphorylation)
Format: biochemical
Conditions: not given

Chain of ALPK1 (Q96QP1 whole entry): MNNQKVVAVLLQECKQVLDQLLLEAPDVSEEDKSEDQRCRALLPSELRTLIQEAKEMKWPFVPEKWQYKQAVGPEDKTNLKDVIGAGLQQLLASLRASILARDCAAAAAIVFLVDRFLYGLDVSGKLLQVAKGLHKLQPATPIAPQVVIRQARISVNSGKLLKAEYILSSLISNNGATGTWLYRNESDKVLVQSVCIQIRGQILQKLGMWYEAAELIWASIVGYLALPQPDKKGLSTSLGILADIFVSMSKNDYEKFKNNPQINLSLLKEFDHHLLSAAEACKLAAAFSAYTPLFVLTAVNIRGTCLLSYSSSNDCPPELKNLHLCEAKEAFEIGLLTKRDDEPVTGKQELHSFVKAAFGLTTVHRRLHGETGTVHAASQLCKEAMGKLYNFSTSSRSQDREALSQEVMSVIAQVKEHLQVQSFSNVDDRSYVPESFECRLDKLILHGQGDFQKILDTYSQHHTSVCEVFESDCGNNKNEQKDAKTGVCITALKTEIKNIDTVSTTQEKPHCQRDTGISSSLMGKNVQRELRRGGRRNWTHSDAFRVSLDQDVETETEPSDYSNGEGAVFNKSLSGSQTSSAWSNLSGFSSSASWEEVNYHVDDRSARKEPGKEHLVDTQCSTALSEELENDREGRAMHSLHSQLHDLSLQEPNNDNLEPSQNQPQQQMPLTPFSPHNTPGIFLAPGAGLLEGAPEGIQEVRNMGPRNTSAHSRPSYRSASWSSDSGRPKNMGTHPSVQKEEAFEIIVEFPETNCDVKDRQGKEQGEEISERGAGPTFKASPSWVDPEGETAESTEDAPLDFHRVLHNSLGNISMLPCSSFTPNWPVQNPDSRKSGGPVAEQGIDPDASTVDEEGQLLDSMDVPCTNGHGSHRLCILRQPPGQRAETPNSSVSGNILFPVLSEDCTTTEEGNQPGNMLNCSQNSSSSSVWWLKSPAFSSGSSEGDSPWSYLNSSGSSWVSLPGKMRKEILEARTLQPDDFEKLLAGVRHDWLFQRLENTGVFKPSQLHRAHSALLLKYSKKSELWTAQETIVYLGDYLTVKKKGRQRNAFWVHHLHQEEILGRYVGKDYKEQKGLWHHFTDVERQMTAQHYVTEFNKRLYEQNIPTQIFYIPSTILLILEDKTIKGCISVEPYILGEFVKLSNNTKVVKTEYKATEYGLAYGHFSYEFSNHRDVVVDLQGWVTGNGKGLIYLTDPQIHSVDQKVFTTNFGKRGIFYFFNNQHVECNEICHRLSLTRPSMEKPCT

| Structure (SMILES) | IC50 [nM] |
| --- | --- |
| C#CC(C)(c1ccc(Br)cc1)c1csc(NC(N)=O)n1 (stereo in doubt) [Example A163, (S)-1-(4-(2-(4-bromophenyl)but-3-yn-2-yl)thiazol-2-yl)urea] | 4 |
| C#CC(C)(c1ccc(Br)cc1)c1csc(NC(N)=O)n1 (stereo in doubt) [Example A164, (R)-1-(4-(2-(4-bromophenyl)but-3-yn-2-yl)thiazol-2-yl)urea] | 17 |

Same assay, conditions: ALPK1 2 nM, TIFA substrate, ADP-Heptose activator, HTRF readout

| Structure (SMILES) | IC50 [nM] |
| --- | --- |
| COCC(C)(c1ccc(Br)cc1)c1csc(NC(=O)c2c(F)cc(N3CCNCC3)cc2F)n1 (centres unmarked) [Example C027, N-(4-(2-(4-bromophenyl)-1-methoxypropan-2-yl)thiazol-2-yl)-2,6-difluoro-4-(piperazin-1-yl)benzamide] | 100 |
| COCC(C)(c1ccc(OC)cc1)c1csc(NC(=O)c2c(F)cc(N3CCNCC3)cc2F)n1 (centres unmarked) [Example C028, 2,6-difluoro-N-(4-(1-methoxy-2-(4-methoxyphenyl)propan-2-yl)thiazol-2-yl)-4-(piperazin-1-yl)benzamide] | 288 |
| COCC(C)(c1ccc(Cl)cc1)c1csc(NC(=O)c2c(F)cc(N3CCNCC3)cc2F)n1 (centres unmarked) [Example C029, N-(4-(2-(4-chlorophenyl)-1-methoxypropan-2-yl)thiazol-2-yl)-2,6-difluoro-4-(piperazin-1-yl)benzamide] | 128 |
| CN1CCN(c2cc(F)c(C(=O)Nc3nc(C4(c5ccc(Br)cc5)CCCC4)cs3)c(F)c2)CC1 [Example C030, N-(4-(1-(4-bromophenyl)cyclopentyl)thiazol-2-yl)-2,6-difluoro-4-(4-methylpiperazin-1-yl)benzamide] | 1770 |
| CCOCC(C)(c1ccccc1)c1csc(NC(=O)c2c(F)cc(N3CCNCC3)cc2F)n1 (centres unmarked) [Example C031, N-(4-(1-ethoxy-2-phenylpropan-2-yl)thiazol-2-yl)-2,6-difluoro-4-(piperazin-1-yl)benzamide] | 642 |
| C#CC(C)(c1ccc(OC(F)F)cc1)c1csc(NC(=O)c2c(F)cc(N3CCNCC3)cc2F)n1 (centres unmarked) [Example C033, N-(4-(2-(4-(difluoromethoxy)phenyl)but-3-yn-2-yl)thiazol-2-yl)-2,6-difluoro-4-(piperazin-1-yl)benzamide] | 73 |
| CC(c1ccc(Cl)cc1)(c1csc(NC(=O)c2c(F)cc(N3CCNCC3)cc2F)n1)C1CC1 (centres unmarked) [Example C045, N-(4-(1-(4-chlorophenyl)-1-cyclopropylethyl)thiazol-2-yl)-2,6-difluoro-4-(piperazin-1-yl)benzamide] | 25 |
| C#CC(CC)(c1ccc(Cl)cc1)c1csc(NC(=O)c2c(F)cc(N3CCNCC3)cc2F)n1 (centres unmarked) [Example C047, N-(4-(3-(4-chlorophenyl)pent-1-yn-3-yl)thiazol-2-yl)-2,6-difluoro-4-(piperazin-1-yl)benzamide] | 131 |
| C#CC(C)(c1ccc(Cl)cc1)c1coc(NC(=O)c2c(F)cc(N3CCNCC3)cc2F)n1 (centres unmarked) [Example C051, N-(4-(2-(4-chlorophenyl)but-3-yn-2-yl)oxazol-2-yl)-2,6-difluoro-4-(piperazin-1-yl)benzamide] | 26 |
| C#CC(C)(c1ccc(Cl)cc1)c1c[nH]c(NC(=O)c2c(F)cc(N3CCNCC3)cc2F)n1 (centres unmarked) [Example C052, N-(4-(2-(4-chlorophenyl)but-3-yn-2-yl)-1H-imidazol-2-yl)-2,6-difluoro-4-(piperazin-1-yl)benzamide] | 44 |
| CC(=O)Nc1nc(C(C)(C)c2ccc(Br)cc2)cs1 [Example D001, N-(4-(2-(4-bromophenyl)propan-2-yl)thiazol-2-yl)acetamide] | 100 |
| C#CC(C)(c1ccc(OC)cc1)c1csc(NC(C)=O)n1 (centres unmarked) [Example D002, N-(4-(2-(4-methoxyphenyl)but-3-yn-2-yl)thiazol-2-yl)acetamide] | 196 |
| C#CC(C)(c1csc(NC(C)=O)n1)c1ccc(Br)cc1F (centres unmarked) [Example D003, N-(4-(2-(4-bromo-2-fluorophenyl)but-3-yn-2-yl)thiazol-2-yl)acetamide] | 183 |
| C#CC(C)(c1ccc(Cl)cc1)c1csc(NC(C)=O)n1 (centres unmarked) [Example D004, N-(4-(2-(4-chlorophenyl)but-3-yn-2-yl)thiazol-2-yl)acetamide] | 18 |
| C#CC(C)(c1ccc(Br)cc1)c1csc(NC(=O)C2CC(O)C2)n1 (centres unmarked) [Example D007, N-(4-(2-(4-bromophenyl)but-3-yn-2-yl)thiazol-2-yl)-3-hydroxycyclobutanecarboxamide] | 55 |
| C#CC(CC)(c1ccc(Br)cc1)c1csc(NC(C)=O)n1 (centres unmarked) [Example D008, N-(4-(3-(4-bromophenyl)pent-1-yn-3-yl)thiazol-2-yl)acetamide] | 143 |

From US20240109853A1 (Shanghai Yao Yuan Biotechnology Co., Ltd., priority 2020, published 2024)
